Here are results for 25 compounds from ChEMBL document CHEMBL4616700, “Novel HIV-1 Protease Inhibitors with Morpholine as the P2 Ligand to Enhance Activity against DRV-Resistant Variants” (ACS Med Chem Lett, 2020).

Molecules are shown by their SMILES.

For assay [1], the system named is Human immunodeficiency virus 1. In words: Antiviral activity against wild type HIV-1. The format is functional, organism-based.
The target of assay [2] is Human immunodeficiency virus type 1 protease (Human immunodeficiency virus 1, UniProt Q72874). In words: Inhibition of wild type HIV1 protease expressed in Escherichia coli using Arg-Glu (EDANS)-Ser-Gln-Asn-Tyr-Pro-Ile-Val-Gln-Lys(DABCYL)-Arg as substrate preincubated for 20 to 30 mins followed by substrate addition and measured for 10 mins by FRET assay.
Assay [3] has as its system Human immunodeficiency virus 1. In words: Antiviral activity against VSV-G pseudotyped HIV1 NL4-3 in human TZM-bl cells infected with virus particles extracted from human SupT1 cells infected with HIV1 NL4-3 at 10 uM incubated for 48 hrs assessed as inhibition of late stage viral infection by luciferase assay relative to control. To be noted: Human immunodeficiency virus 1, NL4-3, TZM. The format is functional.

Assay [4] concerns Human immunodeficiency virus 1. In words: Antiviral activity against VSV-G pseudotyped darunavir-resistant HIV1 NL4-3 in human SupT1 cells infected with supernatants of virus particles extracted from human 293T cells infected with darunavir-resistant HIV1 NL4-3 incubated for 48 hrs assessed as inhibition of late stage viral infection by single-round infection based luciferase reporter assay. The assay is classed as functional, organism-based. Particulars: Human immunodeficiency virus 1, NL4-3, 48 h. (In a reporter assay the amount or activity of a reporter protein is the signal.)

Assay [5] deals with Human immunodeficiency virus 1. In words: Antiviral activity against VSV-G pseudotyped wild type HIV1 NL4-3 in human SupT1 cells infected with supernatants of virus particles extracted from human 293T cells infected with wild type HIV1 NL4-3 incubated for 48 hrs assessed as inhibition of late stage viral infection by single-round infection based luciferase reporter assay. Particulars: Human immunodeficiency virus 1, NL4-3, 48 h. The format is functional, organism-based.

The subject of assay [6] is Human immunodeficiency virus 1. As to the kind of experiment: Antiviral activity against VSV-G pseudotyped HIV1 NL4-3 infected in human SupT1 cells assessed as inhibition of early stage viral infection at 10 uM after 48 hrs by luciferase assay relative to control. Particulars: Human immunodeficiency virus 1, NL4-3, SUP-T1, 48 h. The format is functional.
Assay [7] has as its target Human immunodeficiency virus type 1 protease (Human immunodeficiency virus 1) (UniProt Q72874). In words: Potency index, ratio of Darunavir Ki to compound Ki for inhibition of wild type HIV1 protease expressed in Escherichia coli using Arg-Glu (EDANS)-Ser-Gln-Asn-Tyr-Pro-Ile-Val-Gln-Lys(DABCYL)-Arg as substrate preincubated for 20 to 30 mins followed by substrate addition and measured for 10 mins by FRET assay.

In assay [8] the test system is Human immunodeficiency virus 1. As to the kind of experiment: Potency index, ratio of Darunavir IC50 to compound IC50 for antiviral activity against wild type HIV-1. The assay is classed as functional.

For `COc1ccc(S(=O)(=O)N(CC(C)C)C[C@@H](O)[C@H](Cc2ccccc2)NC(=O)CN2CCO[C@H](C)C2)cc1`, the IC50 in assay [1] worked out at 63.6 nM. The inhibitory constant (Ki) in assay [2] came out at 14.2 nM.
In assay [1], `COc1ccc(S(=O)(=O)N(CC(C)C)C[C@@H](O)[C@H](Cc2ccccc2)NC(=O)CN2CCOCC2)cc1` returned an IC50 of 33.2 nM. In assay [2], affinity was put at a Ki of 7.44 nM.
Taken in the same sequence, the figures for `CC(C)CN(C[C@@H](O)[C@H](Cc1ccccc1)NC(=O)N1CCOCC1)S(=O)(=O)c1ccc(C(F)(F)F)cc1` were 75 nM and 16.8 nM.
Taken in the same sequence, the figures for `CC(C)CN(C[C@@H](O)[C@H](Cc1ccccc1)NC(=O)CN1CCO[C@H](C)C1)S(=O)(=O)c1ccc(N)cc1` were 84.6 nM and 18.9 nM.
For `CC(C)CN(C[C@@H](O)[C@H](Cc1ccccc1)NC(=O)O[C@H]1CO[C@H]2OCC[C@H]21)S(=O)(=O)c1ccc(N)cc1`, the inhibition at 10 µM in assay [3] amounted to 100%. Besides, the half-maximal effective concentration (EC50) was found to be 240 nM in assay [4] and 3.9 nM in assay [5].
On to `CC(C)CN(C[C@@H](O)[C@H](Cc1ccccc1)NC(=O)CN1CCO[C@@H](C)C1)S(=O)(=O)c1ccc(C(F)(F)F)cc1`, for which the IC50 in assay [1] is 419 nM. In assay [2], this compound had an inhibition constant (Ki) of 93.9 nM.
Compound `COc1ccc(S(=O)(=O)N(CC(C)C)C[C@@H](O)[C@H](Cc2ccccc2)NC(=O)N2CCOCC2)cc1` yielded an IC50 in assay [1] of 0.95 nM. In assay [2], the inhibition constant Ki stood at 0.21 nM. The inhibition at 10 µM stood at 91% in assay [3] and 12% in assay [6]. For the same compound, the EC50 in assay [4] stood at 4900 nM; in assay [5] it was 2000 nM. Besides, the Ratio Ki in assay [7] was found to be 2. Also, the “Ratio IC50” value in assay [8] turned out to be 2.
For the compound `CC(C)CN(C[C@@H](O)[C@H](Cc1ccccc1)NC(=O)CN1CCOCC1)S(=O)(=O)c1ccc(N)cc1`, the midpoint of inhibition in assay [1], the IC50, lay at 37.7 nM. In addition, in assay [2], the Ki was 8.45 nM.
Taken in the same sequence, the figures for `CC(C)CN(C[C@@H](O)[C@H](Cc1ccccc1)NCCN1CCOCC1)S(=O)(=O)c1ccc(N)cc1` were 429 nM and 96.2 nM.
Taken in the same sequence, the figures for `CC(C)CN(C[C@@H](O)[C@H](Cc1ccccc1)NC[C@H](O)CN1CCOCC1)S(=O)(=O)c1ccc(N)cc1` were 881 nM and 197 nM.
In assay [1], `COc1ccc(S(=O)(=O)N(CC(C)C)C[C@@H](O)[C@H](Cc2ccccc2)NCCN2CCOCC2)cc1` returned an IC50 of 1110 nM. In assay [2], this compound yielded a Ki of 250 nM.
In assay [1], `CC(C)CN(C[C@@H](O)[C@H](Cc1ccccc1)NCC(=O)N1CCOCC1)S(=O)(=O)c1ccc(C(F)(F)F)cc1` gave a concentration for half-maximal inhibition (IC50) of 568 nM. For the same compound, the affinity in assay [2] corresponds to a Ki of 127 nM.
Taken in the same sequence, the figures for `CC(C)CN(C[C@@H](O)[C@H](Cc1ccccc1)NC(=O)CN1CCO[C@@H](C)C1)S(=O)(=O)c1ccc(N)cc1` were 127 nM and 28.4 nM.
Taken in the same sequence, the figures for `CC(C)CN(C[C@@H](O)[C@H](Cc1ccccc1)NC(=O)CN1CCOCC1)S(=O)(=O)c1ccc(C(F)(F)F)cc1` were 44.2 nM and 9.9 nM.
Taken in the same sequence, the figures for `CC(C)CN(C[C@@H](O)[C@H](Cc1ccccc1)NC(=O)OCCN1CCOCC1)S(=O)(=O)c1ccc(N)cc1` were 3.85 nM and 0.86 nM.
Compound `CC(C)CN(C[C@@H](O)[C@H](Cc1ccccc1)NC(=O)N1CCOCC1)S(=O)(=O)c1ccc(N)cc1` showed an IC50 in assay [1] of 32.5 nM. This compound also yielded a Ki in assay [2] of 7.28 nM.
`COc1ccc(S(=O)(=O)N(CC(C)C)C[C@@H](O)[C@H](Cc2ccccc2)NC(=O)CN2CCO[C@@H](C)C2)cc1` came in with a 50% inhibitory concentration (IC50) in assay [1] of 25.5 nM. In assay [2], the Ki is 5.71 nM.
In assay [1], `CC(C)CN(C[C@@H](O)[C@H](Cc1ccccc1)NCCN1CCOCC1)S(=O)(=O)c1ccc(C(F)(F)F)cc1` displayed an IC50 of 1500 nM. The inhibitory constant (Ki) in assay [2] amounted to 336 nM.
Taken in the same sequence, the figures for `CC(C)CN(C[C@@H](O)[C@H](Cc1ccccc1)NC[C@H](O)CN1CCOCC1)S(=O)(=O)c1ccc(C(F)(F)F)cc1` were 1500 nM and 651 nM.
Taken in the same sequence, the figures for `CC(C)CN(C[C@@H](O)[C@H](Cc1ccccc1)NC(=O)CN1CCO[C@H](C)C1)S(=O)(=O)c1ccc(C(F)(F)F)cc1` were 272 nM and 61 nM.
With `COc1ccc(S(=O)(=O)N(CC(C)C)C[C@@H](O)[C@H](Cc2ccccc2)NCC(=O)N2CCOCC2)cc1`, the IC50 in assay [1] was 1330 nM. In assay [2], this compound gave a Ki of 298 nM.
Taken in the same sequence, the figures for `COc1ccc(S(=O)(=O)N(CC(C)C)C[C@@H](O)[C@H](Cc2ccccc2)NC[C@H](O)CN2CCOCC2)cc1` were 1500 nM and 750 nM.
Taken in the same sequence, the figures for `CC(C)CN(C[C@@H](O)[C@H](Cc1ccccc1)NC(=O)OCCN1CCOCC1)S(=O)(=O)c1ccc(C(F)(F)F)cc1` were 9.92 nM and 2.22 nM.
Turning to `CC(C)CN(C[C@@H](O)[C@H](Cc1ccccc1)NCC(=O)N1CCOCC1)S(=O)(=O)c1ccc(N)cc1`, the concentration for half-maximal inhibition (IC50) in assay [1] turned out to be 102 nM. This compound gave a Ki in assay [2] of 22.8 nM.
As to `COc1ccc(S(=O)(=O)N(CC(C)C)C[C@@H](O)[C@H](Cc2ccccc2)NC(=O)OCCN2CCOCC2)cc1`, the midpoint of inhibition in assay [1], the IC50, lay at 0.41 nM. This compound also displayed a Ki in assay [2] of 0.09 nM. In addition, the inhibition at 10 µM in assay [3] was found to be 94%; in assay [6] it was 5%. In addition, the EC50 was 9500 nM in assay [4] and 1200 nM in assay [5]. Besides, the Ratio Ki in assay [7] stood at 4. The “Ratio IC50” value in assay [8] is reported as 4.

Broadly, the IC50 is the concentration that inhibits the measured activity by half. Low values mean higher potency, high ones lower potency. As a reminder, the Ki is the equilibrium dissociation constant of an inhibitor or competing ligand from its target. The inhibition is the drop in the measured response relative to a control, in per cent. The term EC50 denotes the concentration needed to bring the measured effect to its halfway point.
